Test results reported in patent US20100273875A1, “Composition for External Application to Skin” (KAO CORPORATION, priority 2007, published 2010).

Tests used:
[1] = test system: hairless mice irradiated with UV-B; assay: Evaluation of wrinkle-preventing effect (visual evaluation of wrinkles), Example 1; format: in vivo; details: 100 μL/day after UV-B, five times a week over 12 weeks
Description: (§1) Six-week-old ICR/HR female mice prepared by mating HR/HR mice with HaM/ICR mice were used as wrinkle model animals (wrinkle-formed hairless mice). The mice were allowed to take feed and water freely and raised in an ultraviolet-free environment of a temperature of 23° C. and a humidity of 55%.
(§2) The hairless mice raised as above were divided into 7 groups each having 8 mice and were irradiated with UV-B. UV-B irradiation was performed according to a known general method described in Tsukahara et al. (Br. J. Dermatol., 2004, 151, p. 984-994) or the like. Specifically, the hairless mice raised as above were placed in cages and irradiated with UV-B using Toshiba SE lamps. Irradiation was performed at an irradiance level of 40 to 50 mJ/cm^2, which corresponds to 0.8 to 1 MED (minimal erythema dose) for general 6-week-old hairless mice, over 12 weeks five times a week.
(§3) Samples to be applied to the hairless mice were prepared as 1% Exemplified Compound (1)/90% ethanol (EtOH) solution, 3% Exemplified Compound (1)/90% EtOH solution, 1% Exemplified Compound (2)/90% EtOH solution, 1% Exemplified Compound (3)/90% EtOH solution, 0.1% Exemplified Compound (4)/90% EtOH solution, and 1% Exemplified Compound (5)/90% EtOH solution.
(§4) Immediately after the ultraviolet ray irradiation, 90% EtOH (control) and the samples prepared as above were applied to the hairless mice of the respective groups over 12 weeks with five times a week at a dose of 100 μL/day. The groups of the hairless mice applied with the samples include “90% EtOH control group” consisting of the mice applied with 90% EtOH, “1%-compound 1 group” consisting of the mice applied with 1% Exemplified Compound (1)/90% EtOH solution, “3%-compound 1 group” consisting of the mice applied with 3% Exemplified Compound (1)/90% EtOH solution, “1%-compound 2 group” consisting of the mice applied with 1% Exemplified Compound (2)/90% EtOH solution, “1%-compound 3 group” consisting of the mice applied with 1% Exemplified Compound (3)/90% EtOH solution, “0.1%-compound 4 group” consisting of the mice applied with 0.1% Exemplified Compound (4)/90% EtOH solution, and “1%-compound 5 group” consisting of the mice applied with 1% Exemplified Compound (5)/90% EtOH solution.
(§5) Five-grade evaluation for wrinkles was performed to classify wrinkles into grades 0 to 4 by reference to the method described in Bisselt et al. (Photochem. Photobiol., 1989, 50, p. 763-769) by a known method described in Tsukahara et al. (Br. J. Dermatol., 2004, 151, p. 984-994) or the like.
The score of the 90% EtOH control group was defined as 100, and wrinkle scores of the respective groups were evaluated based on the five-grade evaluation.

[2] = test system: hairless mice irradiated with UV-B; assay: Replica image analysis (image analysis area ratio), Example 1; format: in vivo; details: 100 μL/day after UV-B, five times a week over 12 weeks
Description: as §1, §2, §3, §4
Replica collection and image analysis were performed as described below. A replica was collected from the skin of the back of each hairless mouse using a rubber-based silicon impression material (GC Corporation) by a known method described in Tsukahara K et al. (Br. J. Dermatol., 2004, 151, p. 984-994) or the like.
(§6) The collected replicas were cut out into pieces with a diameter of 1.8 cm, and the pieces were lined with the impression material to correct the pieces and subjected to an image analysis. The image analysis was performed using PIAS LA-555 (PIAS Corporation) by irradiating each piece with light from a direction of oblique 30 degrees to quantify shadows formed in an area of 10 mm×10 mm (image analysis area ratio (%)).
The image analysis area ratio of the 90% EtOH control group was defined as 100, and the image analysis area ratios (%) of the respective groups were evaluated based on the image analysis area ratios obtained by the quantification.

[3] = test system: hairless mice irradiated with UV-B; assay: Measurement of skin elasticity (Ue, Cutometer), Example 1; format: in vivo; details: 100 μL/day after UV-B, five times a week over 12 weeks
Description: as §1, §2, §3, §4
(§7) Measurement of skin elasticity was performed by a known method described in Tsukahara K et al. (Br. J. Dermatol., 2004, 151, p. 984-994) using Cutometer SEM575 (C+K Corporation) to measure a displacement formed in 2 seconds in total with a 1-second suction of 100 mb, followed by a 1-second relaxation period. Measurement was performed five times for each mouse to determine Ue, which is a parameter of an instantaneous elasticity displacement. The Ue value of the 90% EtOH control group was defined as 100, and Ue values of the respective groups were determined.

[4] = test system: hairless mice irradiated with UV-B; assay: Comprehensive evaluation of photoaging- and wrinkle-preventing effect, Example 1; format: in vivo
Description: as §1, §2, §3, §4, §5, §6, §7

[5] = David Malka et al., Journal of Hepathology, 1997; cited from earlier work
[6] = test system: wrinkle-formed hairless mice; assay: Evaluation of wrinkle-improving effect (visual evaluation of wrinkles), Example 2; format: in vivo; details: 1% in 90% EtOH, five times a week over 6 weeks, after 10 weeks of UV-B; versus 90% EtOH control group
Description: Wrinkle-formed hairless mice were prepared according to the description in the sections (1) and (2)(ii) of the above Example 1 by irradiating 6-week-old ICR/HR female mice, prepared by mating HR/HR with HaM/ICR, with UV-B over 10 weeks five times a week.
The hairless mice having wrinkles formed by irradiation with UV-B were visually evaluated with reference to the method described in Bisselt et al. (Photochem. Photobiol., 1989, 50, p. 763-769) by a known method described in Tsukahara et al. (Br. J. Dermatol., 2004, 151, p. 984-994) to divide the mice into two groups each having eight mice so that the average values of wrinkle scores (evaluated according to the description in the section 2)[…])) of the respective groups were almost the same.
A sample to be applied to the wrinkle-formed hairless mice was prepared as 1% compound (1)/90% EtOH solution.
The 90% EtOH (control) and the sample prepared as above were applied to the wrinkle-formed hairless mice of the respective groups over 6 weeks with five times a week at a dose of […]. The groups of the wrinkle-formed hairless mice applied with the samples include “90% EtOH control group” consisting of the mice applied with 90% EtOH, and “1%-compound 1 group” consisting of the mice applied with 1% Exemplified Compound (1)/90% EtOH solution. […]

| Compound | wrinkle formation inhibiting effect (wrinkle score, visual evaluation) ([1]; 1% in 90% EtOH) | wrinkle formation inhibiting effect (replica image analysis) ([2]; 1% in 90% EtOH) | effect of inhibiting the decrease in skin elasticity (Ue) ([3]; 1% in 90% EtOH) | photoaging-preventing and wrinkle-preventing effects (comprehensive evaluation) ([4]; 1% in 90% EtOH) | further results |
| --- | --- | --- | --- | --- | --- |
| CCCCCCCCCCCCOC(=O)CN(C)C [compound 3, Dodecyl dimethylamino acetate] | decrease in this order | decrease in this order | decrease in this order | high | – |
| CCN(CCCc1ccccc1)CCCc1ccccc1 [alverine] | – | – | – | – | toxicity [5]: high toxicity |
| CCCCCCCCCCCC(=O)OCCN(C)C [compound 1, 2-dimethylamino-ethyl dodecanoate] | decrease in this order | decrease in this order | decrease in this order | high | wrinkle formation inhibiting effect (wrinkle score, visual evaluation) ([1]; 3% in 90% EtOH): decrease in this order; wrinkle formation inhibiting effect (replica image analysis) ([2]; 3% in 90% EtOH): decrease in this order; effect of inhibiting the decrease in skin elasticity (Ue) ([3]; 3% in 90% EtOH): decrease in this order; photoaging-preventing and wrinkle-preventing effects (comprehensive evaluation) ([4]; 3% in 90% EtOH): high; wrinkle score (wrinkle-improving effect, visual evaluation) [6]: lower than that of the 90% EtOH control group |
| CCCCCCCCCCCCNC(=O)CN(C)C [compound 2, 2-Dimethylamino-N-dodecyl-acetamide] | decrease in this order | decrease in this order | decrease in this order | high | – |
| CCCCCCCCCCCCOCCN(C)C [compound 4, (2-dodecyloxy-ethyl)-dimethylamine] | – | – | – | – | wrinkle formation inhibiting effect (wrinkle score, visual evaluation) ([1]; 0.1% in 90% EtOH): decrease in this order; wrinkle formation inhibiting effect (replica image analysis) ([2]; 0.1% in 90% EtOH): decrease in this order; effect of inhibiting the decrease in skin elasticity (Ue) ([3]; 0.1% in 90% EtOH): decrease in this order; photoaging-preventing and wrinkle-preventing effects (comprehensive evaluation) ([4]; 0.1% in 90% EtOH): high |
| CCCCCCCCCCCC(=O)NCCN(C)C [compound 5, (2-dimethylaminoethyl)-amide dodecanoate] | maximum effect of inhibiting wrinkle formation | maximum effect of inhibiting wrinkle formation | maximum effect of inhibiting the decrease in skin elasticity | high | – |
